Assay results as given in patent US20100003246A1, “Novel heterocyclic compounds and uses therof” (priority 2008, published 2010).

Biological target: T1, b-Raf(V600E) (Homo sapiens, UniProt P15056, V600E)
T1 construct: made in house
Experiment: Raf/Mek Amplified Luminescence Proximity Homogeneous Assay (Alpha Screen), b-Raf(V600E)
Assay type: biochemical
Conditions: mutant b-Raf(V600E), read-out: mut-b-RAF (IC50 in uM)
Procedure: Assay buffer: 50 mM Tris, pH 7.5, 15 mM MgCl2, 0.01% BSA, 1 mM DTT Stop buffer: 60 mM EDTA, 0.01% Tween20 Bead buffer: 50 mM Tris, pH 7.5, 0.01% Tween20
b-Raf(V600E), active: Recombinant in-house material biotinylated Mek, kinase dead: Recombinant in-house material Alpha Screen detection kit PerkinElmer, #6760617R Anti phospho-MEK½ Cell signaling #9121 384 well assay plates: White Greiner plates, #781207
b-Raf(V600E) approximately 4 pM c-Raf approximately 4 nM biotinylated Mek, Kinase dead approximately 10 nM
Pre-incubation time with compounds 60 min at room temperature Reaction time 1 or 3 hours at room temperature
Raf and biotinylated Mek, kinase dead, were combined at 2× final concentrations in assay buffer (50 mM Tris, pH 7.5, 15 mM MgCl2, 0.01% BSA and 1 mM DTT) and dispensed 10 μl per well in assay plates (Greiner white 384 well assay plates #781207) containing 0.5 μl of 40× of a raf kinase inhibitor test compound diluted in 100% DMSO. The plate was incubated for 60 min at room temperature.
The Raf kinase activity reaction was started by the addition of 10 μl per well of 2×ATP diluted in assay buffer. After 3 hours (bRaf(V600E)) or 1 hour (c-Raf), the reactions were stopped with the addition of 10 μl of stop reagent (60 mM EDTA). Phosphorylated product was measured using a rabbit anti-p-MEK (Cell Signaling, #9121) antibody and the Alpha Screen IgG (Protein A) detection Kit (PerkinElmer #6760617R), by the addition of 30 μL to the well of a mixture of the antibody (1:2000 dilution) and detection beads (1:2000 dilution of both beads) in bead buffer (50 mM Tris, pH 7.5, 0.01% Tween20). The additions were carried out under dark conditions to protect the detection beads from light. A lid was placed on top of the plate and incubated for 1 hour at room temperature, then the luminescence was read on a PerkinElmer Envision instrument. The concentration of each compound for 50% inhibition (IC50) was calculated by non-linear regression using XL Fit data analysis software.
The Raf/Mek Amplified Luminescence Proximity Homogeneous Assay described was used to generate the luminescence and mutant b-Raf(V600E) IC50 data for selected Raf Kinase Inhibitors shown in Table 1 above.

T1 sequence (P15056 whole entry V600E): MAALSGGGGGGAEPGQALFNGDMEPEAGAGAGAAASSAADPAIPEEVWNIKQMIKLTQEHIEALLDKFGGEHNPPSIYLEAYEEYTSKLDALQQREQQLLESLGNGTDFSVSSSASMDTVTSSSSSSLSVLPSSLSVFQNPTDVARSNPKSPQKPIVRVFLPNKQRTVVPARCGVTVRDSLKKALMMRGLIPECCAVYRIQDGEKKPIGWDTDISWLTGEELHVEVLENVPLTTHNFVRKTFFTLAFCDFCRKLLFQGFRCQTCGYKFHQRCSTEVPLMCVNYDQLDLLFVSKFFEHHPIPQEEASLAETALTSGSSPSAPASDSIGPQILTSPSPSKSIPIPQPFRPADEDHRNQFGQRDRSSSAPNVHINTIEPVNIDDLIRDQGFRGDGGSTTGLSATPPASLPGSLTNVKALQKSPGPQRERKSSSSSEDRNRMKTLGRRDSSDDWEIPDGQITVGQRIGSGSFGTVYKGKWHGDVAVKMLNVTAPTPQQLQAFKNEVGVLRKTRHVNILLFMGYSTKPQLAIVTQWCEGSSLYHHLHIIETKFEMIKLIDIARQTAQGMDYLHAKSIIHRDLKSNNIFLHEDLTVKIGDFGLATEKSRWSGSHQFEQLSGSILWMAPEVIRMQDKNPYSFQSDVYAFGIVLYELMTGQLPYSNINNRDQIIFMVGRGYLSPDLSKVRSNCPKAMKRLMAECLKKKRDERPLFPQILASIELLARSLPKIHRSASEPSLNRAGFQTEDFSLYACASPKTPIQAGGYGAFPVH

IC50	SMILES
0.058 µM	Nc1n[nH]c2cc(-c3[nH]c(-c4ccccc4)nc3-c3ccncc3)ccc12 [Compound 24, 6-(2-phenyl-4-(pyridin-4-yl)-1H-imidazol-5-yl)-1H-indazol-3-amine]
0.489 µM	Nc1ncc(-c2[nH]c(-c3ccccc3)nc2-c2ccncc2)cn1 [Compound 25, 5-(2-phenyl-4-(pyridin-4-yl)-1H-imidazol-5-yl)pyrimidin-2-amine]
0.173 µM	Nc1n[nH]c2ccc(-c3[nH]c(-c4ccccc4)nc3-c3ccncc3)cc12 [Compound 26, 5-(2-phenyl-4-(pyridin-4-yl)-1H-imidazol-5-yl)-1H-indazol-3-amine]
0.417 µM	Nc1cc(-c2[nH]c(-c3ccccc3)nc2-c2ccncc2)ccn1 [Compound 27, 4-(2-phenyl-4-(pyridin-4-yl)-1H-imidazol-5-yl)pyridin-2-amine]
0.449 µM	CC(=O)Nc1n[nH]c2cc(-c3[nH]c(-c4ccccc4)nc3-c3ccncc3)ccc12 [Compound 28, N-(6-(2-phenyl-4-(pyridin-4-yl)-1H-imidazol-5-yl)-1H-indazol-3-yl)acetamide]
0.26 µM	Nc1ccc(-c2[nH]c(-c3ccccc3)nc2-c2ccncc2)cn1 [Compound 29, 5-(2-phenyl-4-(pyridin-4-yl)-1H-imidazol-5-yl)pyridin-2-amine]
0.528 µM	Nc1n[nH]c2cc(-c3[nH]c(-c4ccccc4)nc3-c3ccncc3)cc(F)c12 [Compound 30, 4-fluoro-6-(2-phenyl-4-(pyridin-4-yl)-1H-imidazol-5-yl)-1H-indazol-3-amine]
0.017 µM	c1ccc(-c2nc(-c3ccncc3)c(-c3ccc4cn[nH]c4c3)[nH]2)cc1 [Compound 32, 6-(2-phenyl-4-(pyridin-4-yl)-1H-imidazol-5-yl)-1H-indazole]
0.054 µM	c1ccc(-c2nc(-c3ccncc3)c(-c3ccc4cc[nH]c4c3)[nH]2)cc1 [Compound 33, 6-(2-phenyl-4-(pyridin-4-yl)-1H-imidazol-5-yl)-1H-indole]
0.005 µM	c1ccc(-c2nc(-c3ccncc3)c(-c3ccc4cnoc4c3)[nH]2)cc1 [Compound 34, 6-(2-phenyl-4-(pyridin-4-yl)-1H-imidazol-5-yl)benzo[d]isoxazole]
0.099 µM	Cc1n[nH]c2ccc(-c3[nH]c(-c4ccccc4)nc3-c3ccncc3)cc12 [Compound 35, 3-methyl-5-(2-phenyl-4-(pyridin-4-yl)-1H-imidazol-5-yl)-1H-indazole]
0.013 µM	COc1cncc(-c2[nH]c(-c3ccccc3)nc2-c2ccncc2)c1 [Compound 36, 3-methoxy-5-(2-phenyl-4-(pyridin-4-yl)-1H-imidazol-5-yl)pyridine]
0.387 µM	Nc1ccc(-c2[nH]c(-c3ccccc3)nc2-c2ccncc2)c(F)n1 [Compound 37, 6-fluoro-5-(2-phenyl-4-(pyridin-4-yl)-1H-imidazol-5-yl)pyridin-2-amine]
0.006 µM	COc1nc(-c2[nH]c(-c3ccccc3)nc2-c2ccncc2)cnc1N [Compound 39, 3-methoxy-5-(2-phenyl-4-(pyridin-4-yl)-1H-imidazol-5-yl)pyrazin-2-amine]
0.502 µM	COc1cc(N)ncc1-c1[nH]c(-c2ccccc2)nc1-c1ccncc1 [Compound 40, 4-methoxy-5-(2-phenyl-4-(pyridin-4-yl)-1H-imidazol-5-yl)pyridin-2-amine]
0.349 µM	COc1ncc(-c2[nH]c(-c3ccccc3)nc2-c2ccncc2)cc1N [Compound 42, 2-methoxy-5-(2-phenyl-4-(pyridin-4-yl)-1H-imidazol-5-yl)pyridin-3-amine]

IC50	SMILES
0.025 µM	CNc1ncc(-c2[nH]c(-c3ccccc3)nc2-c2ccncc2)cc1OC [Compound 43, 3-methoxy-N-methyl-5-(2-phenyl-4-(pyridin-4-yl)-1H-imidazol-5-yl)pyridin-2-amine]
0.465 µM	Oc1ccc(-c2[nH]c(-c3ccccc3)nc2-c2ccncc2)cn1 [Compound 44, 5-(2-phenyl-4-(pyridin-4-yl)-1H-imidazol-5-yl)pyridin-2-ol]
0.0046 µM	c1ccc(-c2nc(-c3ccncc3)c(-c3cnc4[nH]ccc4c3)[nH]2)cc1 [Compound 45, 5-(2-phenyl-4-(pyridin-4-yl)-1H-imidazol-5-yl)-1H-pyrrolo[2,3-b]pyridine]
0.0287 µM	Nc1ncc(-c2[nH]c(-c3ccccc3)nc2-c2ccncc2)cc1Cl [Compound 46, 3-chloro-5-(2-phenyl-4-(pyridin-4-yl)-1H-imidazol-5-yl)pyridin-2-amine]
0.885 µM	O=C1CCc2cc(-c3[nH]c(-c4ccccc4)nc3-c3ccncc3)cnc2N1 [Compound 47, 6-(2-phenyl-4-(pyridin-4-yl)-1H-imidazol-5-yl)-3,4-dihydro-1,8-naphthyridin-2(1H)-one]
0.12 µM	COc1cc(-c2nc(-c3ccccc3)[nH]c2-c2ccnc(C)c2)cnc1N [Compound 48, 3-methoxy-5-(5-(2-methylpyridin-4-yl)-2-phenyl-1H-imidazol-4-yl)pyridin-2-amine]
0.0222 µM	c1ccc(-c2nc(-c3ccncc3)c(-c3cnc4[nH]ncc4c3)[nH]2)cc1 [Compound 49, 5-(2-phenyl-4-(pyridin-4-yl)-1H-imidazol-5-yl)-1H-pyrazolo[3,4-b]pyridine]
0.259 µM	COc1nc(-c2[nH]c(C)nc2-c2ccncc2)cnc1N [Compound 50, 3-methoxy-5-(2-methyl-4-(pyridin-4-yl)-1H-imidazol-5-yl)pyrazin-2-amine]
0.0196 µM	COc1cc(-c2[nH]c(C)nc2-c2ccncc2)cnc1N [Compound 51, 3-methoxy-5-(2-methyl-4-(pyridin-4-yl)-1H-imidazol-5-yl)pyridin-2-amine]
0.0123 µM	c1ccc(-c2nc(-c3ccncc3)c(-c3cnc4c(c3)CCN4)[nH]2)cc1 [Compound 52, 5-(2-phenyl-4-(pyridin-4-yl)-1H-imidazol-5-yl)-2,3-dihydro-1H-pyrrolo[2,3-b]pyridine]
0.29 µM	c1ccc(-c2nc(-c3ccncc3)c(-c3cnc4[nH]cnc4c3)[nH]2)cc1 [Compound 53, 6-(2-phenyl-4-(pyridin-4-yl)-1H-imidazol-5-yl)-3H-imidazo[4,5-b]pyridine]
0.0098 µM	COc1cc(-c2nc(-c3ccccc3)[nH]c2-c2ccnc(N)c2)cnc1N [Compound 55, 5-(5-(2-aminopyridin-4-yl)-2-phenyl-1H-imidazol-4-yl)-3-methoxypyridin-2-amine]
0.0029 µM	CNc1nccc(-c2[nH]c(-c3ccccc3)nc2-c2cnc(N)c(OC)c2)n1 [Compound 56, 4-(4-(6-amino-5-methoxypyridin-3-yl)-2-phenyl-1H-imidazol-5-yl)-N-methylpyrimidin-2-amine]
0.62 µM	c1ccc(-c2nc(-c3ccncc3)c(-c3ccsc3)[nH]2)cc1 [Compound 57, 4-(2-phenyl-5-(thiophen-3-yl)-1H-imidazol-4-yl)pyridine]
0.0002 µM	COc1cc(-c2[nH]c(-c3ccccc3)nc2-c2ccnc(N[C@@H]3CCCN(S(=O)(=O)c4ccc(Cl)cc4)C3)n2)cnc1N [Compound 58, (R)-4-(5-(6-amino-5-methoxypyridin-3-yl)-2-phenyl-1H-imidazol-4-yl)-N-(1-(4-chlorophenylsulfonyl)piperidin-3-yl)pyrimidin-2-amine]
0.68 µM	c1ccc(-c2nc(-c3ccncc3)c(-c3cnc4c(n3)CCN4)[nH]2)cc1 [Compound 59, 2-(2-phenyl-4-(pyridin-4-yl)-1H-imidazol-5-yl)-6,7-dihydro-5H-pyrrolo[3,2-b]pyrazine]
